In patent US20260124184A1, “ONCE DAILY ALDOSTERONE SYNTHASE INHIBITOR (R)-(+)-5-(P-CYANOPHENYL)-5,6,7,8-TETRAHYDROIMIDAZO[L,5-A]PYRIDINE” (priority 2022, published 2026):
Like-named read-outs stand apart in the source and are kept apart here.

How the values were obtained:
[1] = system: patients with primary aldosteronism
Description: (§1) A double-blind, randomized, Phase 2 trial was conducted between November 2019 and June 2022 at 11 centres in Italy, Switzerland and the Netherlands (NCT04007406). […] Patients requiring fixed-dose antihypertensive therapy continued treatment throughout the study; steroid therapies, β-adrenergic and renin-angiotensin-aldosterone system blockers were not permitted. At 14-day intervals, office blood pressures were recorded and blood samples were taken for measurement of steroid and peptide hormones and electrolytes at a central laboratory.
A centrally calibrated and validated device (Spacelab Healthcare) was used; the device was fitted at the hospital outpatient department by medically qualified staff on day −1 and day 55 prior to supervised drug intake by the patient. The light digital monitor with convenient carry pouches takes the blood pressure reading at regular intervals by inflating and subsequently deflating customized cuffs placed around the non-dominant upper arm for 24-hour recording of about 70 readings. Patients followed their regular routines yet refrained from exercising or taking a bath or shower. In addition, to assure proper measurements, the patient was asked to sit down prior to reading, keep the cuff at the same level as the heart and rest the arm steady. The patient was also asked to keep a diary on activities, meals and sleep to document what he/she was doing just before the reading was taken. At the end of the 24-hour period, the patient was able to remove the monitor and cuff, shower or bathe and return the device to the Investigator at the clinic. The machine stored all readings as source data that were uploaded in the eCRF.
For all efficacy endpoints, changes from baseline were calculated from linear models and accompanied by 95% confidence intervals and p values. Log-transformed values were used for changes in ARR. The full analysis set (FAS) and safety set were defined as all randomized patients who received at least one dose of study drug.

[2] = system: patients with primary aldosteronism; remark: listed apart in the source
Description: as §1
Plasma aldosterone and plasma renin concentration were measured centrally under GCP regulations using the Liaison® chemiluminescent immunoassay kit supplied by DiaSorin S.p.A. Italy. The system used specific monoclonal antibodies to prevent cross reactions with other major potential reactants in the serum samples. The monoclonal antibodies directed against specific epitopes of the renin molecule allowed accurate and sensitive quantification. The assays were performed according to the instructions provided by the manufacturer. […] The analytical sensitivity was <0.97 ng/ml. […] The analytical sensitivity was <0.53 IU/mL.

[3] = all doses combined, n=35, Day 1 (baseline)
[4] = all doses combined, n=35, Day 56

(R)-(+)-5-(p-cyanophenyl)-5,6,7,8-tetrahydroimidazolium[1,5-a]pyridine dihydrogen phosphate [dexfadrostat phosphate]
change in aSBP from baseline to Day 56, median ([1]; all doses combined, n=35): −12.23 mmHg
24-hour ambulatory SBP (aSBP), mean [1, 3]: 142.62 mmHg
24-hour ambulatory SBP (aSBP), median [1, 3]: 143.4 mmHg
24-hour ambulatory SBP (aSBP), mean [1, 4]: 131.87 mmHg
24-hour ambulatory SBP (aSBP), median [1, 4]: 130.41 mmHg
LSM change in 24-hour aSBP from baseline ([1]; all patients, Day 1 to Day 56, FIG. 2B, p<0.0001): −10.7 mmHg
effect on 24-hour aSBP ([1]; each dose arm, baseline to day 56): significant reduction (p<0.001) in 24-hour aSBP
plasma aldosterone concentration, mean ([2]; baseline aldosterone 400-600 pmol/L, 4 mg QD, Day 1 (baseline)): 433 pmol/L
plasma aldosterone concentration, mean ([2]; baseline aldosterone 400-600 pmol/L, 4 mg QD, Day 14): 155 pmol/L
plasma aldosterone concentration, mean ([2]; baseline aldosterone 400-600 pmol/L, 4 mg QD, Day 28): 100 pmol/L
plasma aldosterone concentration, mean ([2]; baseline aldosterone 400-600 pmol/L, 4 mg QD, Day 42): 117 pmol/L
plasma aldosterone concentration, mean ([2]; baseline aldosterone 400-600 pmol/L, 4 mg QD, Day 56): 141 pmol/L
plasma aldosterone concentration, mean ([2]; baseline aldosterone 400-600 pmol/L, 4 mg QD, Day 70 (placebo withdrawal)): 425 pmol/L
plasma aldosterone concentration, mean ([2]; baseline aldosterone 400-600 pmol/L, 8 mg QD, Day 1 (baseline)): 404 pmol/L
plasma aldosterone concentration, mean ([2]; baseline aldosterone 400-600 pmol/L, 8 mg QD, Day 14): 70 pmol/L
plasma aldosterone concentration, mean ([2]; baseline aldosterone 400-600 pmol/L, 8 mg QD, Day 28): 70 pmol/L
plasma aldosterone concentration, mean ([2]; baseline aldosterone 400-600 pmol/L, 8 mg QD, Day 42): 47 pmol/L
plasma aldosterone concentration, mean ([2]; baseline aldosterone 400-600 pmol/L, 8 mg QD, Day 56): 58 pmol/L
plasma aldosterone concentration, mean ([2]; baseline aldosterone 400-600 pmol/L, 8 mg QD, Day 70 (placebo withdrawal)): 300 pmol/L
plasma aldosterone concentration, mean ([2]; baseline aldosterone 400-600 pmol/L, 12 mg QD, Day 1 (baseline)): 431 pmol/L
plasma aldosterone concentration, mean ([2]; baseline aldosterone 400-600 pmol/L, 12 mg QD, Day 14): 63 pmol/L
plasma aldosterone concentration, mean ([2]; baseline aldosterone 400-600 pmol/L, 12 mg QD, Day 28): 132 pmol/L
plasma aldosterone concentration, mean ([2]; baseline aldosterone 400-600 pmol/L, 12 mg QD, Day 42): 142 pmol/L
plasma aldosterone concentration, mean ([2]; baseline aldosterone 400-600 pmol/L, 12 mg QD, Day 56): 61 pmol/L
plasma aldosterone concentration, mean ([2]; baseline aldosterone 400-600 pmol/L, 12 mg QD, Day 70 (placebo withdrawal)): 297 pmol/L
plasma aldosterone concentration, mean ([2]; baseline aldosterone 600-1000 pmol/L, 4 mg QD, Day 1 (baseline)): 728 pmol/L
plasma aldosterone concentration, mean ([2]; baseline aldosterone 600-1000 pmol/L, 4 mg QD, Day 14): 186 pmol/L
plasma aldosterone concentration, mean ([2]; baseline aldosterone 600-1000 pmol/L, 4 mg QD, Day 28): 248 pmol/L
plasma aldosterone concentration, mean ([2]; baseline aldosterone 600-1000 pmol/L, 4 mg QD, Day 42): 114 pmol/L
plasma aldosterone concentration, mean ([2]; baseline aldosterone 600-1000 pmol/L, 4 mg QD, Day 56): 250 pmol/L
plasma aldosterone concentration, mean ([2]; baseline aldosterone 600-1000 pmol/L, 4 mg QD, Day 70 (placebo withdrawal)): 325 pmol/L
plasma aldosterone concentration, mean ([2]; baseline aldosterone 600-1000 pmol/L, 8 mg QD, Day 1 (baseline)): 805 pmol/L
plasma aldosterone concentration, mean ([2]; baseline aldosterone 600-1000 pmol/L, 8 mg QD, Day 14): 83 pmol/L
plasma aldosterone concentration, mean ([2]; baseline aldosterone 600-1000 pmol/L, 8 mg QD, Day 28): 120 pmol/L
plasma aldosterone concentration, mean ([2]; baseline aldosterone 600-1000 pmol/L, 8 mg QD, Day 42): 123 pmol/L
plasma aldosterone concentration, mean ([2]; baseline aldosterone 600-1000 pmol/L, 8 mg QD, Day 56): 131 pmol/L
plasma aldosterone concentration, mean ([2]; baseline aldosterone 600-1000 pmol/L, 8 mg QD, Day 70 (placebo withdrawal)): 423 pmol/L
plasma aldosterone concentration, mean ([2]; baseline aldosterone 600-1000 pmol/L, 12 mg QD, Day 1 (baseline)): 912 pmol/L
plasma aldosterone concentration, mean ([2]; baseline aldosterone 600-1000 pmol/L, 12 mg QD, Day 14): 123 pmol/L
plasma aldosterone concentration, mean ([2]; baseline aldosterone 600-1000 pmol/L, 12 mg QD, Day 28): 104 pmol/L
plasma aldosterone concentration, mean ([2]; baseline aldosterone 600-1000 pmol/L, 12 mg QD, Day 42): 85 pmol/L
plasma aldosterone concentration, mean ([2]; baseline aldosterone 600-1000 pmol/L, 12 mg QD, Day 56): 82 pmol/L
plasma aldosterone concentration, mean ([2]; baseline aldosterone 600-1000 pmol/L, 12 mg QD, Day 70 (placebo withdrawal)): 466 pmol/L
plasma aldosterone concentration, mean ([2]; baseline aldosterone 1000-2500 pmol/L, 4 mg QD, Day 1 (baseline)): 2005 pmol/L
plasma aldosterone concentration, mean ([2]; baseline aldosterone 1000-2500 pmol/L, 4 mg QD, Day 14): 816 pmol/L
plasma aldosterone concentration, mean ([2]; baseline aldosterone 1000-2500 pmol/L, 4 mg QD, Day 28): 531 pmol/L
plasma aldosterone concentration, mean ([2]; baseline aldosterone 1000-2500 pmol/L, 4 mg QD, Day 42): 629 pmol/L
plasma aldosterone concentration, mean ([2]; baseline aldosterone 1000-2500 pmol/L, 4 mg QD, Day 56): 589 pmol/L
plasma aldosterone concentration, mean ([2]; baseline aldosterone 1000-2500 pmol/L, 4 mg QD, Day 70 (placebo withdrawal)): 1393 pmol/L
plasma aldosterone concentration, mean ([2]; baseline aldosterone 1000-2500 pmol/L, 8 mg QD, Day 1 (baseline)): 1080 pmol/L
plasma aldosterone concentration, mean ([2]; baseline aldosterone 1000-2500 pmol/L, 8 mg QD, Day 14): 27 pmol/L
plasma aldosterone concentration, mean ([2]; baseline aldosterone 1000-2500 pmol/L, 8 mg QD, Day 28): 57 pmol/L
plasma aldosterone concentration, mean ([2]; baseline aldosterone 1000-2500 pmol/L, 8 mg QD, Day 42): 27 pmol/L
plasma aldosterone concentration, mean ([2]; baseline aldosterone 1000-2500 pmol/L, 8 mg QD, Day 56): 27 pmol/L
plasma aldosterone concentration, mean ([2]; baseline aldosterone 1000-2500 pmol/L, 8 mg QD, Day 70 (placebo withdrawal)): 395 pmol/L
plasma aldosterone concentration, mean ([2]; baseline aldosterone 1000-2500 pmol/L, 12 mg QD, Day 1 (baseline)): 1410 pmol/L
plasma aldosterone concentration, mean ([2]; baseline aldosterone 1000-2500 pmol/L, 12 mg QD, Day 14): 111 pmol/L
plasma aldosterone concentration, mean ([2]; baseline aldosterone 1000-2500 pmol/L, 12 mg QD, Day 28): 74 pmol/L
plasma aldosterone concentration, mean ([2]; baseline aldosterone 1000-2500 pmol/L, 12 mg QD, Day 42): 71 pmol/L
plasma aldosterone concentration, mean ([2]; baseline aldosterone 1000-2500 pmol/L, 12 mg QD, Day 56): 349 pmol/L
plasma aldosterone concentration, mean ([2]; baseline aldosterone 1000-2500 pmol/L, 12 mg QD, Day 70 (placebo withdrawal)): 1264 pmol/L
